US7014839B2, “Light imaging contrast agents” (Amersham Health AS, priority 1995, dated 2006)
Marks after values point to notes of the source that are not given here.

What was measured:
[1] = Residence within the vasculature after injection; assay type: in vivo; conditions: nanoparticles
Method: WIN 72115 was designed to be excited with incident radiation from an Argon Ion laser (in the green, near 514 nm) and emit light at wavelengths above that value. Thus, after injection, illumination of the patient with green light would stimulate emission of light of a slightly different wavelength that could be used for diagnostic purposes. The key features of this agent are that it can be prepared as nanoparticles, remain within the vasculature for greater than 15 minutes, provide both scattering and fluorescence contrast for light imaging. In place of WIN 72115, the photolabelled agent of Example 22 below may be used.

[2] = Average particle size of milled nanoparticle suspensions (light scattering); conditions: for average particle size: light scattering
Method: WIN 70146 (an iodinated X-ray contrast agent prepared according to Example 23 below) was added to each of 3×1.5 oz brown glass bottles containing approximately 12 ml of zirconium silicate, 1.1 mm diameter beads in an amount sufficient to be 15% (wt/vol %) of the final suspension. Bottle A was also made 3% (wt/vol %) Pluronic F-68 while bottle B was made 3% (wt/vol %)) Pluronic F-108 and bottle C was made 3% (wt/vol %) Tetronic T-908. The resulting suspensions were milled at approx 150 rpm for a total of 9 days with estimates of particle size determined at various intervals as detailed below.
WIN 70146 was milled with 1.1 mm diameter zirconium silicate beads for 3 days under aseptic conditions. The concentration of this agent was 15% WIN 70146 in the presence of 4% Pluronic F-108. No additional salts or surfactants were added.
WIN 70146 was milled with 1.1 mm diameter zirconium silicate beads in the presence of Pluronic F-108 for 3 days. […] At this point, sterile PEG 400 was added to the suspension such that at completion, the formulation contained 15% (wt/vol %) WIN 70146, 3% (wt/vol %) Pluronic F-108 and 10% PEG 400.
(§1) This suspension was then diluted in water to various levels listed below. The percent of incident light transmitted was then determined for each suspension at several wavelengths (see below). The suspensions were then dissolved by addition of methanol and examined for percent transmitted light against an equivalent solvent blank.
A formulation of WIN 70177 (an iodinated X-ray contrast agent prepared according to Example 24) was prepared as 15 gm of WIN 70177/100 ml of suspension and 4.25-gm of Pluronic F108/100 ml of suspension and 10 gm of PEG 400/100 ml of suspension.
A formulation of WIN 67722 (an iodinated X-ray contrast agent as described in U.S. Pat. No. 5,322,679) was prepared as in Example 1 using 3% Pluronic F108 and 15% PEG 1450.
as §1

[3] = Percent of incident light transmitted by diluted nanoparticle suspension and by methanol-dissolved agent; assay type: physicochemical; conditions: for % T suspension 632 nm / % T suspension 700 nm / % T suspension 820 nm / % T suspension 800 nm: nanoparticle suspension
Description: The results are given below.

mice = system: mice
Method: WIN 70146 was prepared as in Example 10 and injected into the tail vein of mice at doses of 3 ml/kg, 15 ml/kg, and 30 ml/kg (ie. 0.45 gm/kg, 2.25 gm/kg and 4.5 gm/kg).

[4] = Absorbance vs wavelength of dissolved and nanoparticle agent; assay type: physicochemical; conditions: above 600 nm; for Absorbance vs wavelength of dissolved agent: dissolved (methanol); for Absorbance vs wavelength of nanoparticle agent: particulate suspension
[5] = Stability testing in fresh rat plasma; assay type: physicochemical; conditions: nanoparticle suspension, F108/PEG 400
Method: (§2) A formulation of WIN 70177 (an iodinated X-ray contrast agent prepared according to Example 24) was prepared as 15 gm of WIN 70177/100 ml of suspension and 4.25-gm of Pluronic F108/100 ml of suspension and 10 gm of PEG 400/100 ml of suspension. The suspension was milled for 5 days after which the average particle size was determined by light scattering to be about 235 nm.

[6] = Stability testing in simulated gastric fluid; assay type: physicochemical; conditions: nanoparticle suspension, F108/PEG 400
Method: as §2

[7] = methanol added, 0.150%, not fully dissolved
[8] = methanol added, 0.300%, not fully dissolved
[9] = 3% Pluronic F108, 15% PEG 1450, milled 3 days, Coulter N4MD

Row | SMILES | % T solution 632 nm ([3]; dissolved by methanol, 0.015%) [%] | % T solution 700 nm ([3]; dissolved by methanol, 0.015%) [%] | % T solution 632 nm ([3]; dissolved by methanol, 0.0375%) [%] | % T solution 700 nm ([3]; dissolved by methanol, 0.0375%) [%] | % T solution 632 nm ([3]; dissolved by methanol, 0.075%) [%] | % T solution 700 nm ([3]; dissolved by methanol, 0.075%) [%] | % T solution 632 nm [3, 7] | % T solution 700 nm [3, 7] | % T solution 632 nm [3, 8] | % T solution 700 nm [3, 8] | % T suspension 632 nm ([3]; 0.015%) [%] | % T suspension 700 nm ([3]; 0.015%) [%] | % T suspension 632 nm ([3]; 0.0375%) [%] | % T suspension 700 nm ([3]; 0.0375%) [%] | % T suspension 632 nm ([3]; 0.075%) [%] | % T suspension 700 nm ([3]; 0.075%) [%] | % T suspension 632 nm ([3]; 0.150%) [%] | % T suspension 700 nm ([3]; 0.150%) [%] | % T suspension 632 nm ([3]; 0.300%) [%] | % T suspension 700 nm ([3]; 0.300%) [%] | other results
1 | CCOC(=O)c1c(I)c(NS(=O)(=O)c2cccc3c(N(C)C)cccc23)c(I)c(N(CC)C(C)=O)c1I [WIN 72115, 3-(N-Acetyl-N-ethylamino)-5-[(5-dimethylamino-1-naphthylsulfonyl)amino]-2,4,6-triiodobenzoic Acid Ethyl Ester] | – | – | – | – | – | – | – | – | – | – | – | – | – | – | – | – | – | – | – | – | melting point: 238 to 240 °C; Time remaining within the vasculature [1]: greater than 15 minutes; average particle size ([2]; 15 gm agent and 3 gm Pluronic F108 per 100 ml): 225 nm
2 | CCCCC(OC(=O)c1c(I)c(NC(C)=O)c(I)c(NC(C)=O)c1I)C(=O)OCC (centres unmarked) [WIN 70146, Benzoic Acid, 3,5-bis(acetylamino)-2,4,6-triiodo-1-(ethoxycarbonyl)pentyl ester] | 100.4 | 100.3 | 99.9 | 99.9 | 99.9 | 99.8 | 41.4* % | 51.9* % | 1.2* % | 4.0* % | 54.7 | 64.5 | 25.4 | 36.6 | 7.7 | 15.4 | 0.5 | 1.9 | 0.0 | 0.1 | % T solution 820 nm ([3]; dissolved by methanol, 0.015%): 100.5%; % T solution 820 nm ([3]; dissolved by methanol, 0.0375%): 99.9%; % T solution 820 nm ([3]; dissolved by methanol, 0.075%): 99.9%; % T solution 820 nm [3, 7]: 66.2* %; % T solution 820 nm [3, 8]: 13.5* %; % T suspension 820 nm ([3]; 0.015%): 77.0%; % T suspension 820 nm ([3]; 0.0375%): 53.8%; % T suspension 820 nm ([3]; 0.075%): 31.8%; % T suspension 820 nm ([3]; 0.150%): 8.6%; % T suspension 820 nm ([3]; 0.300%): 0.8%; Untoward effects (mice; tail vein, 3, 15 and 30 ml/kg (0.45, 2.25, 4.5 gm/kg), 7 days): No untoward effects were noted; Gross observation after sacrifice (mice; tail vein, 3-30 ml/kg, after 7 days): did not reveal any obvious lesions or disfigurations; Absorbance vs wavelength of dissolved agent [4]: does not show any evidence of light absorbance from 600 to 800 nm; Absorbance vs wavelength of nanoparticle agent [4]: shows a classic absorbance decay due to scattering of the incident light; average diameter after autoclaving ([2]; 4.25% F108/10% PEG 400): 228 nm; average particle size ([2]; 15% WIN 70146, 4% Pluronic F-108, milled 3 days): 162 nm; final particle size after autoclaving ([2]; 15% agent, 3% Pluronic F-108, 10% PEG 400, 121 degrees C. for 20 min): 248 nm; final particle size after milling ([2]; Pluronic F-108, milled 3 days, before PEG 400 and autoclaving): 235 nm; Stability to heat and shelf time of nanoparticle suspension ([2]; in F108 and T908, autoclaving, time on the shelf): excellent stability to heat (autoclaving) and time on the shelf
3 | CCOC(=O)CCCCCOC(=O)c1c(I)c(NC(C)=O)c(I)c(NC(C)=O)c1I [WIN 67722] | 99.9 | 99.9 | 100.2 | 100.2 | 100.1 | 100.2 | 48.2* % | 55.3* % | 1.3* % | 3.5* % | 47.9 | 57.1 | 20.5 | 29.9 | 4.8 | 9.9 | 0.2 | 1.0 | 0.0 | 0.0 | % T solution 820 nm ([3]; dissolved by methanol, 0.015%): 100.6%; % T solution 820 nm ([3]; dissolved by methanol, 0.0375%): 100.4%; % T solution 820 nm ([3]; dissolved by methanol, 0.075%): 100.4%; % T solution 820 nm [3, 7]: 65.5* %; % T solution 820 nm [3, 8]: 10.7* %; % T suspension 820 nm ([3]; 0.015%): 69.2%; % T suspension 820 nm ([3]; 0.0375%): 45.6%; % T suspension 820 nm ([3]; 0.075%): 22.1%; % T suspension 820 nm ([3]; 0.150%): 4.9%; % T suspension 820 nm ([3]; 0.300%): 0.2%; Absorbance vs wavelength of dissolved agent [4]: has virtually no absorbance at all even at 5 times the concentration; Absorbance vs wavelength of nanoparticle agent [4]: provides an exponential drop in absorbance with wavelength; average diameter after autoclaving ([2]; 3% Pluronic F108, 15% PEG 1450): 214 nm; particle size [2, 9]: 213 nm; particle size, small fraction [2, 9]: 537 nm
4 | CC(=O)Nc1c(I)c(NC(C)=O)c(I)c(C(=O)OCC(C(=O)OC(C)C)C(=O)OC(C)C)c1I [WIN 70177, Propanedioic Acid, [[3,5-bis(acetylamino)-2,4,6-triiodobenzoyl]oxy]methyl-bis(1-methylethyl)ester] | 102.2 | 101.9 | 102.3 | 101.9 | 100.9 | 100.8 | 59.5* % | 67.8* % | 7.4* % | 14.4* % | 53.3 | 62.8 | 34.6 | 45.7 | 25.8 | 36.8 | 6.7 | 13.6 | 0.1 | 0.6 | % T solution 800 nm ([3]; dissolved by methanol, 0.015%): 101.8%; % T solution 800 nm ([3]; dissolved by methanol, 0.0375%): 101.8%; % T solution 800 nm ([3]; dissolved by methanol, 0.075%): 101.0%; % T solution 800 nm [3, 7]: 77.0* %; % T solution 800 nm [3, 8]: 26.8* %; % T suspension 800 nm ([3]; 0.015%): 73.1%; % T suspension 800 nm ([3]; 0.0375%): 59.1%; % T suspension 800 nm ([3]; 0.075%): 51.1%; % T suspension 800 nm ([3]; 0.150%): 26.3%; % T suspension 800 nm ([3]; 0.300%): 3.2%; Aggregation in fresh rat plasma [5]: did not show any aggregation; Aggregation in simulated gastric fluid [6]: did not show any aggregation; Absorbance vs wavelength of dissolved agent [4]: has virtually no absorbance at all even at 5 times the concentration; Absorbance vs wavelength of nanoparticle agent [4]: provides an exponential drop in absorbance with wavelength; average diameter after autoclaving ([2]; 4.25% F108/10% PEG 400): 236 nm; average particle size ([2]; 15 gm agent, 4.25 gm Pluronic F108, 10 gm PEG 400 per 100 ml, milled 5 days): about 235 nm
